Patent US20260042731A1, “(2,4-DICHLOROPHENOXY)ACETIC ACID ANALOGS” (CORTEVA AGRISCIENCE LLC, priority 2022, published 2026)
Read-outs that look alike come from different tables or passages of the source.

Assays:
[1] = test system: Amaranthus rudis (AMATA), tall water hemp; test: Postemergence herbicide evaluation, growth of Amaranthus rudis (AMATA); format: in vivo; conditions: Amaranthus tuberculatus, post-emergence, percent reduction in plant size relative to untreated control, read-out: Ave. AMATA; for pest or weed control at 280 g/ha: 280 g ae/ha; for pest or weed control at 560 g/ha: 560 g ae/ha
Velvetleaf (ABUTH) = test: Greenhouse post-emergence mixture trials, percent visual control; format: in vivo; conditions: ABUTH, 21 DAA; for pest or weed control at 560 g/ha / pest or weed control at 1120 g/ha: Abutilon theophrasti, post-emergence, 504 h, no mixing partner; for pest or weed control at 1120 g/ha: read-out: % Control
[2] = test system: Common Lambsquarters (CHEAL); test: as above; format: in vivo; conditions: CHEAL, 21 DAA; for pest or weed control at 560 g/ha / pest or weed control at 1120 g/ha: Chenopodium album, post-emergence, 504 h, no mixing partner; for pest or weed control at 1120 g/ha: read-out: % Control
[3] = test system: glyphosate resistant Conyza canadensis (L.) (ERICA), horseweed; test: Postemergence herbicide evaluation, growth of Conyza canadensis (ERICA); format: in vivo; conditions: Erigeron canadensis, post-emergence, percent reduction in plant size relative to untreated control, read-out: Ave. ERICA; for pest or weed control at 280 g/ha: 280 g ae/ha; for pest or weed control at 560 g/ha: 560 g ae/ha
[4] = test system: Abutilon theophrasti (ABUTH), velvetleaf; test: Postemergence herbicide evaluation, growth of Abutilon theophrasti (ABUTH); format: in vivo; conditions: Abutilon theophrasti, post-emergence, percent reduction in plant size relative to untreated control, read-out: AVE. ABUTH; for pest or weed control at 280 g/ha: 280 g ae/ha; for pest or weed control at 560 g/ha: 560 g ae/ha
[5] = test system: Chenopodium album (CHEAL), common lambsquarters; test: Postemergence herbicide evaluation, growth of Chenopodium album (CHEAL); format: in vivo; conditions: Chenopodium album, post-emergence, percent reduction in plant size relative to untreated control, read-out: Ave. CHEAL; for pest or weed control at 280 g/ha: 280 g ae/ha; for pest or weed control at 560 g/ha: 560 g ae/ha
[6] = Volatility of compounds measured by thermogravimetric analysis (TGA); format: physicochemical
[7] = test system: Ambrosia artemisiifolia (AMBEL), common ragweed; test: Postemergence herbicide evaluation, growth of Ambrosia artemisiifolia (AMBEL); format: in vivo; conditions: Ambrosia artemisiifolia, post-emergence, percent reduction in plant size relative to untreated control, read-out: AVE. AMBEL; for pest or weed control at 280 g/ha: 280 g ae/ha; for pest or weed control at 560 g/ha: 560 g ae/ha
Corn (ZEAMX) = test: Greenhouse post-emergence mixture trials, percent visual control; format: in vivo; conditions: ZEAMX, 21 DAA
[8] = test system: weeds (ABUTH, AMATA, AMBEL, CHEAL, ERICA); test: Postemergence herbicide evaluation, overall average % weed control across ABUTH, AMATA, AMBEL, CHEAL, ERICA; format: in vivo; conditions: post-emergence, average over the five weeds, read-out: Overall Ave % Weed Control; for pest or weed control at 280 g/ha: 280 g ae/ha; for pest or weed control at 560 g/ha: 560 g ae/ha
[9] = Trial Bridge 2, compound 560 g ae/ha
[10] = Trial Bridge 2, compound 1120 g ae/ha
[11] = Trial Bridge 1, compound 560 g ae/ha + Glufosinate 600 g ai or ae/ha
[12] = Trial Bridge 2, compound 560 g ae/ha + Saflufenacil 25 g ai or ae/ha
[13] = Trial Bridge 2, compound 560 g ae/ha + Saflufenacil 75 g ai or ae/ha
[14] = Trial Bridge 2, compound 560 g ae/ha + Trifludimoxazin 12.5 g ai or ae/ha
[15] = Trial Bridge 2, compound 560 g ae/ha + Trifludimoxazin 50 g ai or ae/ha
[16] = Trial Bridge 2, compound 1120 g ae/ha + Saflufenacil 25 g ai or ae/ha
[17] = Trial Bridge 2, compound 1120 g ae/ha + Saflufenacil 75 g ai or ae/ha
[18] = Trial Bridge 2, compound 1120 g ae/ha + Trifludimoxazin 50 g ai or ae/ha

O=C(COc1ccc(Cl)cc1Cl)NNC(=O)c1ccccc1 [Compound D10]
91%: pest or weed control at 280 g/ha ([4]; 504 h, 21 DAA) | pest or weed control at 280 g/ha ([7]; 336 h, 14 DAA)
63%: pest or weed control at 280 g/ha ([3]; 168 h, 7 DAA) | pest or weed control at 280 g/ha ([5]; 168 h, 7 DAA)
100%: % Control (Velvetleaf (ABUTH); compound 1120 g ae/ha + Sulfentrazone 130 g ai/ha, Trial Bridge 3) | % Control (Velvetleaf (ABUTH); compound 1120 g ae/ha + Sulfentrazone 347 g ai/ha, Trial Bridge 3) | pest or weed control at 1120 g/ha (Velvetleaf (ABUTH); Trial Bridge 1 Trt 3, D10 1120 g ae/ha) | pest or weed control at 560 g/ha (Velvetleaf (ABUTH); [9]) | pest or weed control at 1120 g/ha (Velvetleaf (ABUTH); [10]) | % Control (Velvetleaf (ABUTH); [11]) | % Control (Velvetleaf (ABUTH); Trial Bridge 1 Trt 5, D10 560 g ae/ha + diclosulam 35 g ai or ae/ha) | % Control (Velvetleaf (ABUTH); Trial Bridge 1 Trt 6, D10 1120 g ae/ha + diclosulam 35 g ai or ae/ha) | % Control (Velvetleaf (ABUTH); Trial Bridge 1 Trt 8, D10 560 g ae/ha + Arylex 5 g ai or ae/ha) | % Control (Velvetleaf (ABUTH); Trial Bridge 1 Trt 9, D10 1120 g ae/ha + Arylex 5 g ai or ae/ha) | % Control (Velvetleaf (ABUTH); Trial Bridge 1 Trt 11, D10 560 g ae/ha + Mesotrione 150 g ai or ae/ha) | % Control (Velvetleaf (ABUTH); Trial Bridge 1 Trt 12, D10 1120 g ae/ha + Mesotrione 150 g ai or ae/ha) | % Control (Velvetleaf (ABUTH); Trial Bridge 1 Trt 14, D10 560 g ae/ha + Glyphosate 1120 g ai or ae/ha) | % Control (Velvetleaf (ABUTH); Trial Bridge 1 Trt 15, D10 1120 g ae/ha + Glyphosate 1120 g ai or ae/ha) | % Control (Velvetleaf (ABUTH); [12]) | % Control (Velvetleaf (ABUTH); [13]) | % Control (Velvetleaf (ABUTH); [14]) | % Control (Velvetleaf (ABUTH); [15]) | % Control (Velvetleaf (ABUTH); [16]) | % Control (Velvetleaf (ABUTH); [17]) | % Control (Velvetleaf (ABUTH); [18]) | % Control [2, 12] | % Control [2, 13] | % Control [2, 14] | % Control [2, 15] | % Control [2, 16] | % Control [2, 17] | % Control ([2]; Trial Bridge 2, compound 1120 g ae/ha + Trifludimoxazin 12.5 g ai or ae/ha) | % Control [2, 18] | % Control ([2]; Trial Bridge 3, compound 560 g ae/ha + Sulfentrazone 130 g ai/ha) | % Control ([2]; Trial Bridge 3, compound 560 g ae/ha + Sulfentrazone 347 g ai/ha) | % Control ([2]; Trial Bridge 3, compound 1120 g ae/ha + Sulfentrazone 130 g ai/ha) | % Control ([2]; Trial Bridge 3, compound 1120 g ae/ha + Sulfentrazone 347 g ai/ha) | pest or weed control at 1120 g/ha ([2]; Trial Bridge 3, compound 1120 g ae/ha) | % Control [2, 11] | % Control ([2]; Trial Bridge 1, compound 560 g ae/ha + Mesotrione 150 g ai or ae/ha) | % Control ([2]; Trial Bridge 1, compound 1120 g ae/ha + Mesotrione 150 g ai or ae/ha) | pest or weed control at 560 g/ha ([4]; 504 h, 21 DAA) | pest or weed control at 560 g/ha ([7]; 504 h, 21 DAA)
87%: pest or weed control at 280 g/ha ([8]; 504 h, 21 DAA)
93%: pest or weed control at 280 g/ha ([3]; 504 h, 21 DAA) | pest or weed control at 280 g/ha ([7]; 504 h, 21 DAA)
65%: pest or weed control at 560 g/ha ([3]; 168 h, 7 DAA) | pest or weed control at 560 g/ha ([5]; 168 h, 7 DAA)
80%: pest or weed control at 560 g/ha ([1]; 168 h, 7 DAA)
75%: % Control (Corn (ZEAMX); Trial Bridge 1, compound 560 g ae/ha + Glyphosate 1120 g ai or ae/ha) | pest or weed control at 560 g/ha ([8]; 168 h, 7 DAA)
84%: pest or weed control at 280 g/ha ([8]; 336 h, 14 DAA)
88%: pest or weed control at 560 g/ha ([3]; 336 h, 14 DAA) | pest or weed control at 280 g/ha ([4]; 168 h, 7 DAA)
0.3 µg/min: TGA Data (rate of weight loss, volatility) [6]
95%: pest or weed control at 1120 g/ha (Velvetleaf (ABUTH); compound 1120 g ae/ha, Trial Bridge 3) | pest or weed control at 560 g/ha [2, 9] | pest or weed control at 1120 g/ha [2, 10] | pest or weed control at 560 g/ha ([2]; Trial Bridge 3, compound 560 g ae/ha) | pest or weed control at 560 g/ha ([2]; Trial Bridge 1, compound 560 g ae/ha) | pest or weed control at 1120 g/ha ([2]; Trial Bridge 1, compound 1120 g ae/ha) | % Control ([2]; Trial Bridge 1, compound 1120 g ae/ha + Arylex 5 g ai or ae/ha)
99%: pest or weed control at 560 g/ha (Velvetleaf (ABUTH); Trial Bridge 1 Trt 2, D10 560 g ae/ha) | pest or weed control at 560 g/ha ([3]; 504 h, 21 DAA)
83%: pest or weed control at 280 g/ha ([3]; 336 h, 14 DAA) | pest or weed control at 560 g/ha ([4]; 168 h, 7 DAA) | pest or weed control at 560 g/ha ([5]; 336 h, 14 DAA) | pest or weed control at 560 g/ha ([7]; 168 h, 7 DAA)
10%: % Control (Corn (ZEAMX); Trial Bridge 1, compound 1120 g ae/ha, no mixing partner, single replicate) | plant injury at 1120 g/ha (Corn (ZEAMX); Zea mays, post-emergence, 504 h, Trial Bridge 1, compound 1120 g ae/ha, no mixing partner, single replicate)
94%: pest or weed control at 280 g/ha ([1]; 336 h, 14 DAA) | pest or weed control at 560 g/ha ([8]; 504 h, 21 DAA)
97%: pest or weed control at 560 g/ha ([7]; 336 h, 14 DAA)
71%: pest or weed control at 280 g/ha ([8]; 168 h, 7 DAA)
73%: pest or weed control at 280 g/ha ([5]; 504 h, 21 DAA) | pest or weed control at 280 g/ha ([7]; 168 h, 7 DAA)
85%: pest or weed control at 280 g/ha ([1]; 504 h, 21 DAA) | pest or weed control at 560 g/ha ([1]; 504 h, 21 DAA) | pest or weed control at 560 g/ha (Velvetleaf (ABUTH); compound 560 g ae/ha, Trial Bridge 3) | pest or weed control at 280 g/ha ([4]; 336 h, 14 DAA) | pest or weed control at 560 g/ha ([5]; 504 h, 21 DAA)
92%: pest or weed control at 560 g/ha ([8]; 336 h, 14 DAA)
96%: pest or weed control at 560 g/ha ([1]; 336 h, 14 DAA) | pest or weed control at 560 g/ha ([4]; 336 h, 14 DAA)
68%: pest or weed control at 280 g/ha ([1]; 168 h, 7 DAA) | pest or weed control at 280 g/ha ([5]; 336 h, 14 DAA)
5%: plant injury at 560 g/ha (Corn (ZEAMX); Zea mays, post-emergence, 504 h, compound 560 g ae/ha, no mixing partner, Trial Bridge 3)
70%: % Control (Corn (ZEAMX); Trial Bridge 1, compound 560 g ae/ha + Glyphosate 1120 g ai or ae/ha, single replicate)
